In patent US20160024204A1, “METHODS FOR PRODUCING ANTIBODIES” (BRISTOL-MYERS SQUIBB COMPANY, priority 2013, published 2016):

System: P. pastoris
Assay: Effects of hydroxyurea on cell growth and antibody productivity in P. pastoris fermentation (Run 01MAY11)
Details: 2.6-2.8 g/L hydroxyurea; for WB Titer (anti-IL-6 antibody): age 90 h, lots T5, T6 and T10

NC(=O)NO [Hydroxyurea]
WCW reached and maintained by hydroxyurea treatment lots (control lots ~400 g/Kg) (after peak cell density at 30-40 hours, FIG. 8): ~450 g/kg
WB Titer (anti-IL-6 antibody): 75.0 ± 2.7 Normalized
WB Titer (anti-IL-6 antibody) (listed as hydroxyurea): 75 Normalized
